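Dose response: 5 concentrations. Exposure: 48 h. Format: 96-well plates. Endpoint: linear interpolation; highest concentration if not reached. The concentration for 50% growth inhibition is given as GI50.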 Active and inactive are the calls of the source. Cut-off read from the data, not from the text of the source: active = GI50 up to about 1.1 µM and inactive = higher.
How the values were obtained:
Assay in all cases: NCI anticancer screen, dose series, 48 h
DMS-114 = system: DMS-114
DMS-273 = system: DMS-273
SNB-78 = system: SNB-78
DLD-1 = system: DLD-1
KM-20L2 = system: KM-20L2
RXF 631 = system: RXF 631
LXFL 529 = system: LXFL 529
HOP-18 = system: HOP-18
XF498 = system: XF498

Measured: GI50

CC(C)N(C(=O)C12C3C4C5(C(=O)O)C(C1C35I)C42C(=O)O)C(C)C (stereo not given)
inactive: DMS-114 > 100 µM | DMS-273 > 100 µM | SNB-78 > 100 µM | DLD-1 > 100 µM | KM-20L2 > 100 µM | RXF 631 > 100 µM | LXFL 529 > 100 µM

COC1=NCc2ccccc2-c2ccccc21
inactive: DMS-114 > 100 µM | DMS-273 > 100 µM | SNB-78 > 100 µM | DLD-1 > 100 µM | HOP-18 75.9 µM | XF498 > 100 µM | LXFL 529 > 10 µM

Cc1ccc(-n2c3nc(=O)n(C)c(=O)c-3nc3ccccc32)c(C)c1
inactive: DMS-273 4.34 µM | SNB-78 21.5 µM | DLD-1 15 µM | HOP-18 6.62 µM | XF498 13.1 µM | KM-20L2 4.92 µM | RXF 631 7.05 µM | LXFL 529 11.3 µM

O=C(n1c2ccccc2c2nnc(S)nc21)C(F)(F)F
inactive: DMS-114 > 100 µM | DMS-273 > 100 µM | SNB-78 > 100 µM | DLD-1 > 100 µM | XF498 > 100 µM | LXFL 529 > 100 µM

Clc1ccc(C(n2cc(Br)cn2)n2cc(Br)cn2)cc1
inactive: DMS-273 18.8 µM | SNB-78 19.7 µM | HOP-18 18.1 µM | LXFL 529 14.9 µM

CN(C)NC(=O)NC12CC3CC(CC(C3)C1)C2
inactive: DMS-273 > 100 µM | SNB-78 > 100 µM | XF498 > 100 µM | KM-20L2 > 100 µM | LXFL 529 > 100 µM

Cc1cc2c(cn1)C(=O)OCC2
inactive: DMS-114 > 100 µM | SNB-78 > 100 µM | DLD-1 > 100 µM | HOP-18 > 100 µM | XF498 > 100 µM | KM-20L2 > 100 µM | LXFL 529 > 100 µM

COc1ccc2c(c1)[n+]([O-])c(/C(C)=N/NC(=O)CC#N)c[n+]2[O-]
inactive: DMS-114 > 100 µM | DMS-273 > 100 µM | SNB-78 > 100 µM | DLD-1 74.6 µM | HOP-18 > 100 µM | XF498 > 100 µM | KM-20L2 > 100 µM | RXF 631 > 100 µM | LXFL 529 > 100 µM

COc1cc2c(cc1OC)C1Cc3ccc(OC)c(OC)c3C[N+]1([O-])CC2 (stereo not given)
inactive: SNB-78 > 100 µM | DLD-1 > 100 µM | XF498 > 100 µM | KM-20L2 > 100 µM | LXFL 529 > 100 µM

COC(=O)C1=C(c2cc(OC)c(OC)c(OC)c2)OC(c2ccc(OC)c(OC)c2)C1 (stereo not given)
inactive: DMS-114 28.4 µM | DMS-273 45.4 µM | DLD-1 36.5 µM | HOP-18 92.3 µM | XF498 68.4 µM | KM-20L2 44.9 µM | LXFL 529 26.5 µM

COc1ccc2ccccc2c1CN1CCOCCOCCN(Cc2c(OC)ccc3ccccc23)CCOCCOCC1
inactive: DMS-114 9.95 µM | DMS-273 24.2 µM | SNB-78 > 68.4 µM | DLD-1 > 100 µM | XF498 > 41.5 µM | KM-20L2 > 23 µM | LXFL 529 > 89.9 µM

Oc1ccc2ccccc2c1/N=N/c1ccsc1
inactive: DMS-114 > 100 µM | DMS-273 > 100 µM | SNB-78 > 100 µM | DLD-1 > 100 µM | HOP-18 > 100 µM | KM-20L2 > 100 µM | RXF 631 45.5 µM | LXFL 529 > 100 µM

CC1(C2CCC3(C)OC3C2)CO1 (stereo not given)
inactive: DMS-114 > 100 µM | DMS-273 > 100 µM | SNB-78 > 100 µM | DLD-1 > 100 µM | HOP-18 > 100 µM | XF498 > 100 µM | KM-20L2 > 100 µM | RXF 631 > 100 µM | LXFL 529 > 100 µM

COC(=O)c1nn(C(=N)c2ccc(Cl)cc2)c2c1CCCCC2
inactive: DMS-114 > 100 µM | DMS-273 > 100 µM | SNB-78 > 100 µM | DLD-1 > 100 µM | KM-20L2 > 100 µM | LXFL 529 > 100 µM

COC(=O)[C@H]1C=C[C@@H](C)n2c(=O)c3cc4ccccc4cc3c(=O)n21
inactive: DMS-114 > 100 µM | DMS-273 > 100 µM | SNB-78 > 100 µM | DLD-1 > 100 µM | XF498 98.9 µM | KM-20L2 > 100 µM | RXF 631 > 100 µM | LXFL 529 > 100 µM

CCOP(=S)(OCC)Oc1ccc2c(c1)OC(=O)C1(Cl)C2(C)C2(Cl)C(=O)Oc3cc(OP(=S)(OCC)OCC)ccc3C12C (stereo not given)
inactive: DMS-114 14.6 µM | DMS-273 20.3 µM | SNB-78 19.4 µM | DLD-1 16.8 µM | XF498 19.2 µM | KM-20L2 17.1 µM | LXFL 529 8.67 µM

— ChEMBL document CHEMBL1201862, “PubChem BioAssay data set” (2004)
